Data from publication PMC2615555 (Virology, 2008).

Assays:
[1] = biological target: T1, I-A^d (Mus musculus, UniProt P01921+P04228); test: biochemical; assay type: binding, BALB/c mouse
T1 sequence (P04228 24-256): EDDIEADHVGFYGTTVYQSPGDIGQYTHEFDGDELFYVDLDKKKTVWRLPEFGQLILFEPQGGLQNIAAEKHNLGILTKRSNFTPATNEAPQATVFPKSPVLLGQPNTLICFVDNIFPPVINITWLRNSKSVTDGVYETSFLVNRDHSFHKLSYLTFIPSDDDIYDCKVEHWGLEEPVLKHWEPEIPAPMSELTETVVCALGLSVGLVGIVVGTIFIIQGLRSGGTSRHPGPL
T1 sequence (P01921 28-265): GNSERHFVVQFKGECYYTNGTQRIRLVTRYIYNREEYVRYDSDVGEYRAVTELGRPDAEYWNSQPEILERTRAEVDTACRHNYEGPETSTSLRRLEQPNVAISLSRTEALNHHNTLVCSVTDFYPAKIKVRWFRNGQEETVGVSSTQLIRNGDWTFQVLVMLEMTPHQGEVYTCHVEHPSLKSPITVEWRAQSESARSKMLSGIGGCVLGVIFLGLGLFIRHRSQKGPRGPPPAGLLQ

[2] = biological target: T2, I-E^d (Mus musculus, UniProt P01904+P01915); test: biochemical; assay type: binding, BALB/c mouse
T2 sequence (P01904 26-255): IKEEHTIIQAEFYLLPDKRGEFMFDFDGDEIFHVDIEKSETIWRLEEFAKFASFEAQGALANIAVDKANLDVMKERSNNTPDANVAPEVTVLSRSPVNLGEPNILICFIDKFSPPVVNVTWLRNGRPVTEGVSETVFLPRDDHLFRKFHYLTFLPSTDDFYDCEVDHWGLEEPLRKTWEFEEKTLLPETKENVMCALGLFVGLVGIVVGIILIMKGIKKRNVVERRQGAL
T2 sequence (P01915 27-264 limits assumed): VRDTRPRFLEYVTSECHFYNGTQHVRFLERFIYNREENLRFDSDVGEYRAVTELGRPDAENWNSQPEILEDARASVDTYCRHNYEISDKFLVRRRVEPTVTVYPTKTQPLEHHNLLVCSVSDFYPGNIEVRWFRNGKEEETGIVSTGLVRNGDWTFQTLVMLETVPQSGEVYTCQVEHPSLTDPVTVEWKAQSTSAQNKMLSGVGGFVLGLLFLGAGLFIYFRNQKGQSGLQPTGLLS

[3] = Binding Assay IC50, I-A^d (envelope 15mers)
[4] = Binding Assay IC50, I-A^d (membrane 15mers)

| SMILES | IC50 [1, 3] [µM] | IC50 [2] [µM] | IC50 [1, 4] [µM] | also measured |
| --- | --- | --- | --- | --- |
| CSCC[C@H](NC(=O)[C@H](CC(C)C)NC(=O)[C@H](CO)NC(=O)[C@H](C)NC(=O)[C@@H](NC(=O)[C@@H](NC(=O)[C@H](CCCNC(=N)N)NC(=O)[C@H](CCCCN)NC(=O)[C@@H](NC(=O)[C@H](CCCCN)NC(=O)[C@H](CCCNC(=N)N)NC(=O)[C@H](CC(C)C)NC(=O)[C@@H](NC(=O)[C@H](C)NC(=O)[C@@H](N)CC(C)C)C(C)C)C(C)C)C(C)C)C(C)C)C(=O)O [C77–91] |  |  |  | Binding Assay IC50, I-A^d (capsid 15mers) [1]: high affinity |
| CSCC[C@H](NC(=O)[C@H](CC(C)C)NC(=O)[C@H](CO)NC(=O)[C@H](C)NC(=O)[C@@H](NC(=O)[C@@H](NC(=O)[C@H](CCCNC(=N)N)NC(=O)[C@H](CCCCN)NC(=O)[C@@H](NC(=O)[C@H](CCCCN)NC(=O)[C@@H](N)CCCNC(=N)N)C(C)C)C(C)C)C(C)C)C(=O)N[C@@H](CCCNC(=N)N)C(=O)NCC(=O)N[C@@H](CC(C)C)C(=O)N[C@@H](CO)C(=O)O [C81–95] |  |  |  | Binding Assay IC50, I-A^d (capsid 15mers) [1]: high affinity |
| CC[C@H](C)[C@H](NC(=O)[C@H](CCCCN)NC(=O)[C@@H](NC(=O)[C@H](CCC(N)=O)NC(=O)[C@H](CC(=O)O)NC(=O)[C@@H](NC(=O)[C@@H](N)CCC(=O)O)C(C)C)[C@@H](C)O)C(=O)N[C@@H](CCC(N)=O)C(=O)N[C@@H](Cc1ccc(O)cc1)C(=O)N[C@H](C(=O)N[C@H](C(=O)N[C@@H](CCCNC(=N)N)C(=O)N[C@@H](C)C(=O)N[C@@H](CCC(N)=O)C(=O)N[C@@H](CC(C)C)C(=O)O)[C@@H](C)CC)C(C)C [E129–143] | < 1 |  |  |  |
| CC[C@H](C)[C@H](NC(=O)[C@H](CCCCN)NC(=O)[C@@H](N)[C@@H](C)O)C(=O)N[C@@H](CCC(N)=O)C(=O)N[C@@H](Cc1ccc(O)cc1)C(=O)N[C@H](C(=O)N[C@H](C(=O)N[C@@H](CCCNC(=N)N)C(=O)N[C@@H](C)C(=O)N[C@@H](CCC(N)=O)C(=O)N[C@@H](CC(C)C)C(=O)N[C@@H](Cc1c[nH]cn1)C(=O)N[C@H](C(=O)NCC(=O)N[C@@H](C)C(=O)O)C(C)C)[C@@H](C)CC)C(C)C [E133–147] | < 1 |  |  |  |
| CC[C@H](C)[C@H](NC(=O)[C@@H](NC(=O)[C@H](C)NC(=O)[C@H](C)NC(=O)[C@H](Cc1c[nH]cn1)NC(=O)[C@@H]1CCCN1C(=O)[C@@H]1CCCN1C(=O)[C@H](CCC(=O)O)NC(=O)[C@H](Cc1ccccc1)NC(=O)[C@@H](N)CCC(=O)O)[C@@H](C)O)C(=O)N[C@@H](CCCNC(=N)N)C(=O)N[C@H](C(=O)N[C@@H](CC(C)C)C(=O)N[C@@H](C)C(=O)N[C@@H](CC(C)C)C(=O)O)C(C)C [E233–247] | < 1 |  |  | Binding Assay IC50, I-E^d (envelope 15mers) [2]: high affinity |
| CC[C@H](C)[C@H](NC(=O)[C@@H](NC(=O)[C@H](C)NC(=O)[C@H](C)NC(=O)[C@H](Cc1c[nH]cn1)NC(=O)[C@@H]1CCCN1)[C@@H](C)O)C(=O)N[C@@H](CCCNC(=N)N)C(=O)N[C@H](C(=O)N[C@@H](CC(C)C)C(=O)N[C@@H](C)C(=O)N[C@@H](CC(C)C)C(=O)NCC(=O)N[C@@H](CC(N)=O)C(=O)N[C@@H](CCC(N)=O)C(=O)N[C@@H](CCC(=O)O)C(=O)O)C(C)C [E237–251] | < 1 |  |  |  |
| CC[C@H](C)[C@H](NC(=O)CN)C(=O)N[C@@H](CC(N)=O)C(=O)N[C@H](C(=O)N[C@@H](CCCNC(=N)N)C(=O)N[C@@H](CC(N)=O)C(=O)N[C@@H](CCSC)C(=O)N[C@H](C(=O)N[C@@H](CCSC)C(=O)N[C@@H](CO)C(=O)N[C@@H](CCSC)C(=O)N[C@@H](CO)C(=O)N[C@@H](CCSC)C(=O)N[C@H](C(=O)N[C@@H](CC(C)C)C(=O)O)[C@@H](C)CC)[C@@H](C)O)[C@@H](C)O [E465–479] | < 1 |  |  |  |
| CC[C@H](C)[C@H](NC(=O)[C@H](C)N)C(=O)N[C@@H](CC(=O)O)C(=O)N[C@@H](CC(C)C)C(=O)N1CCC[C@H]1C(=O)N[C@H](C(=O)N[C@@H](Cc1c[nH]cn1)C(=O)N[C@@H](CCC(=O)O)C(=O)N[C@@H](CC(N)=O)C(=O)N[C@@H](Cc1c[nH]cn1)C(=O)NCC(=O)N[C@@H](CC(C)C)C(=O)N[C@@H](CCCCN)C(=O)N[C@H](C(=O)N[C@@H](CCCNC(=N)N)C(=O)O)[C@@H](C)O)[C@@H](C)O [M1–15] |  | 36.6 | > 45 |  |
| CC(C)C[C@H](NC(=O)CNC(=O)[C@H](Cc1c[nH]cn1)NC(=O)[C@H](CC(N)=O)NC(=O)[C@H](CCC(=O)O)NC(=O)[C@H](Cc1c[nH]cn1)NC(=O)[C@@H](NC(=O)[C@@H]1CCCN1)[C@@H](C)O)C(=O)N[C@@H](CCCCN)C(=O)N[C@H](C(=O)N[C@@H](CCCNC(=N)N)C(=O)N[C@@H](CCC(N)=O)C(=O)N[C@@H](CCC(=O)O)C(=O)N[C@@H](CCCCN)C(=O)N[C@@H](Cc1c[nH]c2ccccc12)C(=O)O)[C@@H](C)O [M5–19] |  | > 45 | 13.2 |  |
| CSCC[C@H](NC(=O)[C@H](Cc1c[nH]c2ccccc12)NC(=O)[C@H](CCCCN)NC(=O)[C@H](CCC(=O)O)NC(=O)[C@H](CCC(N)=O)NC(=O)[C@H](CCCNC(=N)N)NC(=O)[C@@H](NC(=O)[C@H](CCCCN)NC(=O)[C@H](CC(C)C)NC(=O)CNC(=O)[C@H](Cc1c[nH]cn1)NC(=O)[C@@H](N)CC(N)=O)[C@@H](C)O)C(=O)N[C@H](C(=O)NCC(=O)N[C@@H](CCCNC(=N)N)C(=O)O)[C@@H](C)O [M9–23] |  | > 45 | 40.9 |  |
| CSCC[C@H](NC(=O)[C@H](CCCNC(=N)N)NC(=O)CNC(=O)[C@@H](NC(=O)[C@H](CCSC)NC(=O)[C@H](Cc1c[nH]c2ccccc12)NC(=O)[C@H](CCCCN)NC(=O)[C@H](CCC(=O)O)NC(=O)[C@H](CCC(N)=O)NC(=O)[C@H](CCCNC(=N)N)NC(=O)[C@@H](NC(=O)[C@@H](N)CCCCN)[C@@H](C)O)[C@@H](C)O)C(=O)NCC(=O)N[C@@H](CCC(=O)O)C(=O)N[C@@H](CCCNC(=N)N)C(=O)O [M13–27] |  | > 45 | 1.9 |  |
| CSCC[C@H](NC(=O)[C@H](CCCNC(=N)N)NC(=O)CNC(=O)[C@@H](NC(=O)[C@H](CCSC)NC(=O)[C@H](Cc1c[nH]c2ccccc12)NC(=O)[C@H](CCCCN)NC(=O)[C@@H](N)CCC(=O)O)[C@@H](C)O)C(=O)NCC(=O)N[C@@H](CCC(=O)O)C(=O)N[C@@H](CCCNC(=N)N)C(=O)N[C@@H](CCC(N)=O)C(=O)N[C@@H](CC(C)C)C(=O)N[C@@H](CCC(N)=O)C(=O)N[C@@H](CCCCN)C(=O)O [M17–31] |  | 20.7 | 20.4 |  |
| CC[C@H](C)[C@H](NC(=O)[C@H](CCCCN)NC(=O)[C@H](CCC(N)=O)NC(=O)[C@H](CC(C)C)NC(=O)[C@H](CCC(N)=O)NC(=O)[C@H](CCCNC(=N)N)NC(=O)[C@H](CCC(=O)O)NC(=O)CNC(=O)[C@H](CCSC)NC(=O)[C@H](CCCNC(=N)N)NC(=O)CNC(=O)[C@@H](N)[C@@H](C)O)C(=O)N[C@@H](CCC(=O)O)C(=O)N[C@@H](CCCNC(=N)N)C(=O)N[C@@H](Cc1c[nH]c2ccccc12)C(=O)O [M21–35] |  | > 45 | 42.5 |  |
| CC[C@H](C)[C@H](NC(=O)[C@H](CCCCN)NC(=O)[C@H](CCC(N)=O)NC(=O)[C@H](CC(C)C)NC(=O)[C@H](CCC(N)=O)NC(=O)[C@H](CCCNC(=N)N)NC(=O)[C@H](CCC(=O)O)NC(=O)CN)C(=O)N[C@@H](CCC(=O)O)C(=O)N[C@@H](CCCNC(=N)N)C(=O)N[C@@H](Cc1c[nH]c2ccccc12)C(=O)N[C@@H](Cc1ccccc1)C(=O)N[C@H](C(=O)N[C@@H](CCCNC(=N)N)C(=O)N[C@@H](CC(N)=O)C(=O)O)C(C)C [M25–39] |  | 13.2 | > 45 |  |
